The source of these data is US8338565B2, “Macrocyclic compounds for inhibition of tumor necrosis factor alpha” (Ensemble Therapeutics Corporation, priority 2008, dated 2012).

Molecules are shown by their SMILES. Numbered stars: 1 amine (or outer) side, 2 acyl side, 3 side chain; on linkers, the order of the positions; unused ones are H or OH. Bridge positions count the residues as written; N and C are the ends. Square brackets hold non-standard residues; d marks the D form. Peptide text beside a SMILES is read from it. Tartaroyl(2R,3R-(OAc)2) = CC(=O)O[C@@H](C(=O)[*:1])[C@@H](OC(C)=O)C(=O)[*:2]; Phe(4-NO2) = N[C@@H](Cc1ccc([N+](=O)[O-])cc1)C(=O)O; Phe(4-CF3) = N[C@@H](Cc1ccc(C(F)(F)F)cc1)C(=O)O; Phe(2,4-Cl2) = N[C@@H](Cc1ccc(Cl)cc1Cl)C(=O)O; dPhe(4-CN) = N#Cc1ccc(C[C@@H](N)C(=O)O)cc1; Bip = N[C@@H](Cc1ccc(-c2ccccc2)cc1)C(=O)O; dPhe(4-NH2) = Nc1ccc(C[C@@H](N)C(=O)O)cc1; dPhe(4-Br) = N[C@H](Cc1ccc(Br)cc1)C(=O)O; Phe(4-NH2) = Nc1ccc(C[C@H](N)C(=O)O)cc1; d(hPhe) = N[C@H](CCc1ccccc1)C(=O)O; hPhe = N[C@@H](CCc1ccccc1)C(=O)O; 2Thi = N[C@@H](Cc1cccs1)C(=O)O; d2Thi = N[C@H](Cc1cccs1)C(=O)O; Suc = O=C(CCC(=O)[*:2])[*:1]; GABA = NCCCC(=O)O

T1 sequence (P01375 77-233 limits assumed, species assumed): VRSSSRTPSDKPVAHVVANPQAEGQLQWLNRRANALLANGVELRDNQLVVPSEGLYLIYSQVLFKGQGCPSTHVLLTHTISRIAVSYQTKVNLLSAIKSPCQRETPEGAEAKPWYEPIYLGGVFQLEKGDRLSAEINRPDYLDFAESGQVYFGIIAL

The assay concerns the target T1, TNFα / TNFα receptor (TNFα R1/Fc) (Homo sapiens, UniProt P01375).
T1 construct: purchased R&D Systems
Nature of the assay: Inhibition of binding of TNFα to the TNFα receptor (plate ELISA competition). The conditions noted are these: Table 2; read-out: Activity (IC50, inhibition of TNFα binding to TNFα R1/Fc). Put shortly: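 Compound dilutions were preincubated 30 min at RT with 8.33 nM TNFα R1/Fc in PBST with 2% DMSO, then added to wells coated with 15 nM TNFα for 30 min. Bound receptor was detected with HRP anti-human Fc and TMB, read as A450.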
As for `O=C(O)[C@H](Cc1ccccc1)NC(=O)[C@H]1Cc2ccc(cc2)NC(=O)[C@H](O)[C@@H](O)C(=O)N[C@@H](Cc2cccs2)C(=O)N[C@H](Cc2ccc(Br)cc2)C(=O)N[C@@H](CCc2ccccc2)C(=O)N1` [Compound 436], the IC50 was less than 10 µM. As for `CC(=O)O[C@H]1C(=O)Nc2ccc(cc2)C[C@H](C(=O)O)NC(=O)[C@@H](Cc2ccccc2)NC(=O)[C@H](Cc2ccc(Cl)cc2Cl)NC(=O)[C@@H](Cc2ccccc2)NC(=O)[C@@H]1OC(C)=O` [Compound 233] ([dF][Phe(2,4-Cl2)][dF][dPhe(4-NH2)]-OH; linker N-4 via Tartaroyl(2R,3R-(OAc)2)), the figure is 30 to 100 µM; as for `COc1ccc(C[C@@H]2NC(=O)COc3ccc(cc3)C[C@@H](C(=O)O)NC(=O)[C@H](CCc3ccccc3)NC(=O)[C@@H](Cc3ccc(-c4ccccc4)cc3)NC2=O)cc1` [Compound 681], less than 10 µM; as for `O=C1COc2ccc(cc2)C[C@@H](C(=O)N[C@H](Cc2ccccc2)C(=O)O)NC(=O)[C@H](Cc2ccccc2)NC(=O)[C@H](Cc2ccc(-c3ccccc3)cc2)NC(=O)[C@H](Cc2cccs2)N1` [Compound 228], less than 10 µM. Under `O=C1COc2ccc(cc2)C[C@@H](C(=O)O)NC(=O)[C@H](CCc2ccccc2)NC(=O)[C@@H](Cc2ccc(-c3ccccc3)cc2)NC(=O)[C@H](Cc2ccc(-c3ccncc3)cc2)N1` [Compound 684] stands less than 10 µM. As for `O=C1CCC(=O)N[C@H](CCc2ccccc2)C(=O)N[C@@H](Cc2ccc(-c3ccccc3)cc2)C(=O)N[C@H](Cc2ccccc2)C(=O)N[C@H](C(=O)N[C@@H](CCc2ccccc2)C(=O)O)Cc2ccc(cc2)N1` [Compound 470] ([d(hPhe)][Bip][dF][Phe(4-NH2)][hPhe]-OH; linker N-4 via Suc), the figure is less than 10 µM; as for `CC(=O)O[C@H]1C(=O)Nc2ccc(cc2)C[C@H](C(=O)N[C@@H](Cc2ccccc2)C(=O)O)NC(=O)[C@H](CCc2ccccc2)NC(=O)[C@@H](Cc2ccc(Br)cc2)NC(=O)[C@H](Cc2cccs2)NC(=O)[C@@H]1OC(C)=O` [Compound 415] ([2Thi][dPhe(4-Br)][hPhe][dPhe(4-NH2)]F-OH; linker N-4 via Tartaroyl(2R,3R-(OAc)2)), greater than 100 µM.

`O=C(O)[C@@H]1Cc2ccc(cc2)NC(=O)[C@H](O)[C@@H](O)C(=O)N[C@H](Cc2cccs2)C(=O)N[C@@H](Cc2ccc(-c3ccccc3)cc2)C(=O)N[C@H](Cc2ccccc2Cl)C(=O)N1` [Compound 286]: the IC50 was 10 to 30 µM. Consider `O=C(O)CCCNC(=O)[C@@H]1Cc2ccc(cc2)NC(=O)CCC(=O)N[C@H](Cc2cccs2)C(=O)N[C@@H](Cc2ccc(-c3ccccc3)cc2)C(=O)N[C@H](CCc2ccccc2)C(=O)N1` [Compound 449] ([d2Thi][Bip][d(hPhe)][Phe(4-NH2)][GABA]-OH; linker N-4 via Suc), for which the IC50 is greater than 100 µM. Turning to `O=C(O)CCCNC(=O)[C@H]1Cc2ccc(cc2)OCC(=O)N[C@@H](Cc2c[nH]c3ccccc23)C(=O)N[C@H](Cc2ccc(-c3ccccc3)cc2)C(=O)N[C@@H](Cc2ccccc2F)C(=O)N1` [compound 713], the IC50 is less than 10 µM. As to `CC(C)(NC(=O)[C@@H]1Cc2ccc(cc2)NC(=O)[C@H](O)[C@@H](O)C(=O)N[C@H](Cc2cccs2)C(=O)N[C@@H](Cc2ccc(-c3ccccc3)cc2)C(=O)N[C@H](Cc2ccccc2)C(=O)N1)C(=O)O` [Compound 176], the IC50 is greater than 100 µM. As for `Nc1ccc(C[C@H](NC(=O)[C@@H]2Cc3ccc(cc3)NC(=O)CCC(=O)N[C@H](CCc3ccccc3)C(=O)N[C@@H](Cc3ccc(-c4ccccc4)cc3)C(=O)N[C@H](Cc3ccccc3)C(=O)N2)C(=O)O)cc1` [Compound 505] ([d(hPhe)][Bip][dF][Phe(4-NH2)][Phe(4-NH2)]-OH; linker N-4 via Suc), the figure is 10 to 30 µM. Turning to `O=C1CCC(=O)N[C@H](Cc2cccs2)C(=O)N[C@@H](Cc2ccc([N+](=O)[O-])cc2)C(=O)N[C@H](Cc2ccccc2)C(=O)N[C@H](C(=O)O)Cc2ccc(cc2)N1` [Compound 106] ([d2Thi][Phe(4-NO2)][dF][Phe(4-NH2)]-OH; linker N-4 via Suc), the IC50 was greater than 100 µM. Consider `COc1ccc(C[C@H]2NC(=O)CCC(=O)Nc3ccc(cc3)C[C@@H](C(=O)O)NC(=O)[C@@H](Cc3ccccc3)NC(=O)[C@H](Cc3ccc(C(F)(F)F)cc3)NC2=O)cc1` [Compound 162] ([dY](Me)[Phe(4-CF3)][dF][Phe(4-NH2)]-OH; linker N-4 via Suc), for which the IC50 was greater than 100 µM. As for `Cn1cnc(C[C@@H]2NC(=O)COc3ccc(cc3)C[C@@H](C(=O)O)NC(=O)[C@H](CCc3ccccc3)NC(=O)[C@@H](Cc3ccc(-c4ccccc4)cc3)NC2=O)c1` [Compound 706], the figure is 10 to 30 µM; as for `C[C@H]1NC(=O)CCC(=O)Nc2ccc(cc2)C[C@@H](C(=O)O)NC(=O)[C@@H](Cc2ccccc2)NC(=O)[C@H](Cc2ccc(-c3ccccc3)cc2)NC1=O` [Compound 46] ([dA][Bip][dF][Phe(4-NH2)]-OH; linker N-4 via Suc), greater than 100 µM; as for `O=C1CCC(=O)N[C@H](CCc2ccccc2)C(=O)N[C@@H](Cc2ccc(-c3cccc(Cl)c3)cc2)C(=O)N[C@H](Cc2ccccc2)C(=O)N[C@H](C(=O)O)Cc2ccc(cc2)N1` [Compound 171], greater than 100 µM. Under `O=C1COc2ccc(cc2)C[C@@H](C(=O)O)NC(=O)[C@H](Cc2c[nH]c3ccccc23)NC(=O)[C@@H](Cc2ccc(-c3ccccc3)cc2)NC(=O)[C@H](Cc2ccncc2)N1` [Compound 653] stands less than 10 µM. Take `O=C1COc2ccc(cc2)C[C@@H](C(=O)O)NC(=O)[C@@H](Cc2ccc(C(F)(F)F)cc2)NC(=O)[C@H](Cc2ccc(-c3ccccc3)cc2)NC(=O)[C@@H](Cc2cccs2)N1` [Compound 531]: the IC50 is greater than 100 µM. Take `O=C1COc2ccc(cc2)C[C@@H](C(=O)O)NC(=O)[C@H](Cc2cccs2)NC(=O)[C@@H](Cc2ccc(-c3ccccc3)cc2)NC(=O)[C@H](Cc2ccncc2)N1` [Compound 652]: the IC50 was less than 10 µM. As for `CC(C)(C)c1ccc(C[C@@H]2NC(=O)COc3ccc(cc3)C[C@@H](C(=O)O)NC(=O)[C@H](CCc3ccccc3)NC(=O)[C@@H](Cc3ccc(-c4ccccc4)cc3)NC2=O)cc1` [Compound 515], the figure is 10 to 30 µM; as for `O=C1COc2ccc(cc2)C[C@@H](C(=O)NCCS(=O)(=O)O)NC(=O)[C@H](CCc2ccccc2)NC(=O)[C@@H](Cc2ccc(-c3ccccc3)cc2)NC(=O)[C@H](Cc2ccc(-c3ccccc3)cc2)N1` [Compound 608], 10 to 30 µM. As for `O=C1COc2ccc(cc2)C[C@H](C(=O)O)NC(=O)[C@H](Cc2c[nH]c3ccccc23)NC(=O)[C@@H](Cc2ccc(-c3ccccc3)cc2)NC(=O)[C@H](Cc2ccncc2)N1` [Compound 732], the figure is greater than 100 µM. `N[C@@H]1CC(=O)N[C@H](Cc2cccs2)C(=O)N[C@@H](Cc2ccc(-c3ccccc3)cc2)C(=O)N[C@H](Cc2ccccc2)C(=O)N[C@H](C(=O)O)Cc2ccc(cc2)NC1=O` [Compound 374]: the IC50 is greater than 100 µM.

For the molecule `O=C1COc2ccc(cc2)C[C@@H](C(=O)O)NC(=O)[C@H](CCc2ccccc2)NC(=O)[C@@H](Cc2ccc(-c3cccnc3)cc2)NC(=O)[C@H](Cc2cccnc2)N1` [Compound 668], the IC50 is greater than 100 µM. Under `N#Cc1ccc(C[C@H]2NC(=O)CCC(=O)Nc3ccc(cc3)C[C@@H](C(=O)O)NC(=O)[C@@H](Cc3ccccc3)NC(=O)[C@H](Cc3ccc(C(F)(F)F)cc3)NC2=O)cc1` [Compound 131] ([dPhe(4-CN)][Phe(4-CF3)][dF][Phe(4-NH2)]-OH; linker N-4 via Suc) stands 30 to 100 µM.
